Laboratory results published in US8507529B2, “Methods of using a nitroxide antioxidant in cosmetic and dermatological compositions” (Jarrow Formulas, Inc., priority 2005, dated 2013).

What was measured:
[1] = Absorption spectra of 50 μM compounds in acetonitrile; format: physicochemical; conditions: 50 μM in acetonitrile, FIG. 2
Procedure: FIG. 2. Absorption spectra of 50 μM compounds in acetonitrile.

[2] = Optical absorption spectra before and after UVA exposure (photostability); format: physicochemical; conditions: 100 μM in phosphate buffer pH 7.4, 275 kJ/m^2 UVA, ethyl acetate extraction, FIG. 3
Procedure: FIG. 3. […] See Detailed Description for experimental details.
The reason for using buffer was to maintain the same medium as the peroxidation experiments so that comparisons between the optical absorption experiments and lipid peroxidation could be meaningful.
10 mM Stock solutions of TEMPOL and the photoactive ingredients were prepared in acetonitrile. […] The solutions were then transferred to a 24 multi-well plate for cell cultures (Orange Scientific, Cambrex BioScience, Walkerville, Inc.) which was placed on a brass block embedded on ice at a distance of 20 cm from the light source. […] After illumination, 2.4 ml of sample were collected from each well and extracted with the same volume of ethyl acetate. The organic phase was separated and its absorption spectrum was then run on a UV Kontron 941 spectrophotometer. For the non-illuminated samples, the same procedure was followed for the same length of time except that the samples were exposed to direct artificial laboratory working light.

[3] = Peroxidation of multilamellar phosphatidylcholine (PC) liposomes induced by UVA, TBA assay (TBARS); conditions: 3.5 mM PC liposomes, 275 kJ/m^2 UVA; for level of UVA-induced lipid peroxidation (TBARS absorbance): 100 μM compounds alone or combined, FIG. 4
[4] = test system: transgenic murine fibroblast culture; conditions: transgenic murine fibroblast culture model of cutaneous photoaging; cited from earlier work
[5] = test system: human dermal fibroblasts; conditions: cited from earlier work

| Molecule | change in spectral absorption after UVA exposure [2] | level of UVA-induced lipid peroxidation (TBARS absorbance) [3] | further results |
| --- | --- | --- | --- |
| 2,2,6,6-tetramethyl-piperidin-4-yl-p-methoxy cinnamyloxy-1-oxyl [MC-NO] | retains the majority of its original absorbance | greatly reduced to almost control levels | spectral profile and extinction coefficient [1]: same spectral profile and extinction coefficient as OMC |
| CCCCC(CC)COC(=O)C=Cc1ccc(OC)cc1 (centres unmarked) [OMC, 2-ethylhexyl-4-methoxycinnamate] | strong decrease in spectral absorption | seems to protect |  |
| COc1ccc(C(=O)CC(=O)c2ccc(C(C)(C)C)cc2)cc1 [Parsol 1789, 4-tert-butyl-4′-methoxydibenzoylmethane] |  |  | level of UVA-induced lipid peroxidation (TBARS absorbance) with Parsol 1789 ([3]; 100 μM Parsol 1789 alone or combined with 100 μM compound, FIG. 5): significant increase |
| CC1(C)CC(O)CC(C)(C)N1[O] [TEMPOL, 4-hydroxy-2,2,6,6,-tetramethyl-piperidine-1-oxyl] |  |  | protection against UV radiation [4]: affords protection against UV radiation; protection against UV radiation [5]: affords protection against UV radiation |
